Laboratory results: patent US20040029953A1, “Use of neuropeptide-y antagonists in treatment of alcoholism” (priority 2000, published 2004)
“Also recorded” adds a separate entry of the source.

Experiments:
[1] = system: Long-Evans rats; assay: Ethanol (10% v/v) vs. water self-administration after infusion in the PVN, sucrose-faded rats with long-term ethanol history; type: in vivo, rat
Excerpt: The effectiveness of known NPY receptor antagonists and NPY Y1-selective or Y5selective receptor antagonists in reducing craving for alcohol and reducing self-administration of alcohol can be tested in experimental animal models. Briefly, Long-Evans rats are conditioned to the laboratory environment and trained to self-administer concurrent ethanol (10% v/v) vs. water using a sucrose-fading procedure (H. H. Samson, Alcohol Clin. Exp. Res., 1986, 10:436442) as described by Hodge et al. (Alcohol, 1993, 10:191-196). Stereotaxic surgery is performed to implant injector guide cannulae aimed at the PVN. Microinjections of test compounds are given, with and without concomitant injection of NPY, into the PVN of the conditioned rats, which are then immediately given the opportunity to self-administer either water or ethanol (10% v/v). The volume of ethanol and water consumed are measured. Ethanol intake is converted from milliliters consumed to gram/kilogram body weight. Relative ethanol intake (preference) is calculated as […] of ethanol consumed divided by total fluid intake (ethanol+water […]). Drug dose effects are analyzed by one-way repeated measures analysis of variance (ANOVA). Post-hoc comparisons between drug doses and vehicle control are conducted using a paired t-test or Dunnett's t-test where appropriate (SigmaStat, Jandel, San Rafael, Calif.).
Animals. Thirty-six male Long-Evans rats (Harlan, Indianapolis, Ind.) were housed individually in Plexiglas cages. Access to water was restricted during the first day of behavioral training, but was continuously available for the remainder of the experiment. Food was always available in the home cage. In experimental chambers, ethanol (10% v/v) and water were available concurrently during daily (M-F) sessions. The animal colony room was maintained on a 12L:12D cycle with the lights on at 06:30. Experimental sessions were run during the light portion of the cycle. All experimental procedures were conducted under institutional and NIH guidelines.
Apparatus. Experimental sessions were conducted in Plexiglas chambers (27×37×21 cm) located in sound-attenuating cubicles (MED Associates, model ENV 016M, Lafayette, Ind.). Chambers were equipped with exhaust fans that masked external noise. The right wall of each chamber contained two 50-ml drinking bottles. Drug solutions were administered bilaterally through stainless steel injectors (Plastics One, Roanoke, Va.), which were connected via plastic tubing to two 1.0 μl syringes (Hamilton, Reno, Nev.). Syringes were mounted on a micro-infusion pump (Harvard Apparatus, Model 22, Natick, Mass.) set to deliver 0.5 μl/min/syringes.
Self-administration procedures. After 2 weeks of adaptation to laboratory housing conditions, fluid access was restricted to 1-h per day (for 2 days only) and two groups of rats (n=12 per group) were trained to drink from the bottles in the experimental chambers by overnight access to sucrose (10% w/v) vs. water during one overnight session. Daily 1 hour sessions were then conducted with sucrose (10% w/v) vs. water available concurrently. The location (i.e., left or right side of the chamber) of the sucrose and water solutions was alternated daily. When sucrose and water intake patterns stabilized, the rats were trained to self-administer concurrent ethanol (10% v/v) vs. water using a sucrose-fading procedure (H. H. Samson, Alcohol Clin. Exp. Res., 1986, 10:436-442) as previously described (e.g., Hodge et al., 1993). Briefly, ethanol was gradually added to the sucrose solution and then sucrose was faded out of the solution until rats were self-administering 10% ethanol vs. water. During the 2-month sucrose-fading procedure, the location of the ethanol/sucrose solution and water were alternated daily.

[2] = system: Long-Evans rats; assay: Body weight, food intake and water intake in the home cage 24 hours after PVN infusion; type: in vivo, rat
Protocol: FIG. 2 depicts the effects of NPY or NPY+D-NPY infused in the PVN on (A) body weight, (B) food intake, and (C) water intake measured in the home cage 24 hours after infusion. Drug doses were administered in random order. Data are plotted as Mean±SEM of 11 rats.
(§1) Microinjection procedure. When ethanol and water intake stabilized again, microinjections were conducted once per week. Unanesthetized rats were placed in plastic containers (15×30×15 cm deep) to reduce movement. Obturators were removed and sterile 33-gauge injectors were inserted bilaterally to a depth 1 mm beyond the end of the guide cannulae. Drug solutions were infused bilaterally in distilled water vehicle in a total volume of 1 μl (0.5 μl/side) over a 1-min period. The injectors were left in place for an additional 30-sec period to allow drug diffusion. Precise flow of the solutions was verified before and after each injection to ensure compound delivery. Self-administration sessions began immediately after microinjections. Sterile obturators were reinserted at the end of the behavioral sessions. When co-administered, D-NPY or BIBP 3226 was infused 15-min prior to NPY. Vehicle injections were also performed to control for local pressure or osmotic changes caused by infusions. During one month prior to drug testing, the animals were handled and placed in the plastic tubs to minimize the effects of procedural changes on subsequent drug effects. The data from these sessions were not used in the analysis. After completion of the microinjection protocol, the rats were sacrificed and their brains were removed for histological verification of injection sites.

[3] = system: Long-Evans rats; assay: Ethanol vs. water intake after NPY infusion in the PVN, control rats with no long-term history of ethanol self-administration; type: in vivo, rat; conditions: for ETOH Intake / ETOH Preference (%) / water intake: mean±SEM
Excerpt: Since NPY has potent effects on consummatory behavior, it is possible that NPY infusions in the PVN could alter ethanol intake via mechanisms that are unrelated to experience with the pharmacological effects of ethanol. […] Experimentally naive rats were allowed one week to adapt to the laboratory. They were then implanted with bilateral guide cannulae aimed at the PVN. Experimental sessions began one week after surgery to allow for recovery. During daily 60-min sessions, rats were placed in the self-administration chambers with concurrent ethanol (10% v/v) vs. water available. Baseline levels of ethanol and water intake were measured for one week. Microinjection procedures were then conducted.
as §1
Data analysis and statistics. Volume of ethanol and water consumed was measured to the nearest 0.5 milliliter at the end of each 1-h session. Ethanol intake was converted from mls consumed to g/kg body weight. Relative ethanol intake (preference) was calculated as mls of ethanol consumed divided by total fluid intake (ethanol+water mils). Drug dose effects were analyzed by one-way repeated measures analysis of variance (ANOVA). Post-hoc comparisons between drug doses and vehicle control were conducted using paired t-test or Dunnett's t-test where appropriate (SigmaStat, Jandel, San Rafael, Calif.).
Data values are presented as mean±SEM.

[4] = system: C57BL/6J mice; assay: Operant ethanol-reinforced lever pressing (CONC FR1 FR1, 16-h sessions) after systemic administration; type: in vivo, mouse; conditions: for alcohol-seeking behavior (lever presses for alcohol) during the peak period: 4th-5th hour of access, vs saline
Excerpt: Another animal model suitable for testing the effectiveness of the NPY antagonist uses alcohol-reinforced lever pressing behavior as described in Olive et al. Eur. J. Neurosci. 2000 Vol 12, 4131-4140. This model is particularly useful for identifying NPY antagonists that prevent or delay alcohol seeking behavior or prevent or reduce the occurence of relapse drinking in recovering alcoholics.
Male C57BL/6J mice (N=8) were housed in standard Plexiglas cages (n=4/cage) with food (Harlan, Indianapolis, Ind.) and water always available. Mice were 20 weeks of age (body weight, 28-35 g) and drug naïve at the start of all testing. During operant self-administration training, food pellets (15 g per overnight session) were placed into the operant chambers and water was available under a fixed ratio-1 (FR-1) schedule of reinforcement.
Test sessions were conducted in 8 Plexiglas operant chambers (Med Associates, Lafayette, Ind.) measuring 15.9×14×12.7 cm with stainless steel grid floors. Each chamber was housed in a sound-attenuating cubicle equipped with a house fan that provided ventilation and helped mask external noise. The left and right wall of each operant chamber was equipped with one ultra-sensitive stainless steel response lever and a liquid delivery system. Liquid solutions (ethanol or water) were maintained in 60 ml syringes mounted on a programmable pump (PH-100, Med Associates), which delivered 0.01 ml per activation into a stainless steel cup located to the left of the associated response lever. Each chamber also contained a house light (illuminated between 16:00-18:00 hr and 06:00-08:00 hr), as well as a stimulus light located above each lever (activated each time the lever was pressed). The chambers were interfaced (Med Associates) to an IBM-compatible PC, which was programmed to record all lever presses and liquid deliveries.
Mice were trained to lever press using reinforcement (10% sucrose w/v) of successive approximations. After initial behavioral shaping sessions, mice were run during 16 hr overnight (16:00-08:00 hrs) training sessions. During these training sessions, both response levers were active on a concurrent fixed ratio one (CONC FR1 FR1) schedule with 10% sucrose vs. water presented as the reinforcer. The position of each solution (left or right) was fixed for each animal but counterbalanced between animals to control for side preference. After 4 days, mice were trained to orally self-administer ethanol (10% v/v) vs. water using a sucrose substitution procedure, which we have adapted for use in the mouse (Olive et al., 2000 Eur. J. Neurosci. 12:4131-4140). Briefly, ethanol (2, 4, 8, or 10% v/v) was incrementally added to the sucrose (10% w/v) solution with 4 days at each increasing concentration. Then, sucrose (10, 5, 2% w/v) was incrementally faded out of the ethanol containing solution with 4 days at each decreasing concentration. After sucrose substitution training, all mice reliably responded on the CONC FR1 FR1 schedule of reinforcement with ethanol (10% v/v) vs. water presented as the reinforcers.

[5] = D-NPY co-administered with NPY (10 fmol) in the PVN
[6] = any dose of NPY tested, rats without long-term ethanol history
[7] = NPY in the PVN, 24 hours after infusion, ethanol-experienced rats
[8] = NPY, sucrose-inexperienced animals

## [D-Tyr^27,36,D-Thr^32] Neuropeptide Y (27-36) [D-NPY]
[1]; D-NPY alone infused in the PVN
  ethanol intake: partial, but significant, decrease in ethanol intake
[1]; [5]
  NPY-induced decrease in water intake during sessions: completely blocked the effects of NPY on ethanol and water intake; also recorded: significantly reversed NPY-induced decreases in water intake
  NPY-induced increase in ethanol intake: completely blocked the effects of NPY on ethanol and water intake
[1]; D-NPY co-administered with NPY (10 fmol) in the PVN, P<0.09
  NPY-induced increase in ethanol preference: did not significantly alter
[2]; D-NPY alone or in combination with NPY in the PVN
  body weight in the home cage: produced no effect on body weight

## Neuropeptide Y [NPY]
[1]; NPY (10 fmol) in the PVN, BIBP 3226 group of 9 rats
  ethanol intake: significantly increased ethanol intake above control values
[1]; NPY infused in the PVN
  water intake during experimental sessions: decreased water intake in a dose-dependent manner; also recorded: significantly decreased water intake
[1]; NPY infused in the PVN, all doses, 1-hour session, vs vehicle control
  ethanol intake: increases alcohol self-administration; also recorded: significantly increased ethanol intake
[1]; NPY infused in the PVN, dose-dependent, 1-hour session
  ethanol preference: significantly increased ethanol preference
[1]; two highest doses of NPY in the PVN
  ethanol as share of fluid consumption during daily sessions: greater than 90%
[3]; NPY 10.0 fmol in the PVN
  ETOH Intake: 0.0330 ± 0.024 g/kg/h
  ETOH Preference (%): 20.0 ± 13.333%
  water intake: 0 ± 0 mL/h
[3]; NPY 100.0 fmol in the PVN
  ETOH Intake: 0.0550 ± 0.03 g/kg/h
  ETOH Preference (%): 30 ± 15.275%
  water intake: 0.3 ± 0.133 mL/h
[3]; [6]
  change in ethanol intake: no dose of NPY tested produced a change; also recorded: no effect on ethanol intake
  change in ethanol preference: no dose of NPY tested produced a change
  change in water intake: no dose of NPY tested produced a change
[2]; [7]
  body weight in the home cage: no effect
  food consumption in the home cage: no effect
[2]; NPY in the PVN, 24 hours after infusion, ethanol-experienced rats, p<0.05
  water intake in the home cage: reduced water intake in the home cage; also recorded: small but significant reductions
[2]; [8]
  body weight in the home cage: no effect
  food intake in the home cage: no effect
  water intake in the home cage: no effect

## CC1(C)CC(=O)C(C2C3=C(CC(C)(C)CC3=O)Oc3ccccc32)C(=O)C1 (centres unmarked) [L 152,804, 2-(3,3-dimethyl-1-oxo-4H-1H-xanthen-9-yl)-5,5-dimethylcyclohexane-1,3-dione]
[4]; 60 mg/kg
  self-administration during the 13th hour of access: compensatory increase in self-administration
  alcohol-seeking behavior (lever presses for alcohol) during the peak period: significantly decreased alcohol-seeking behavior
[4]; 60 mg/kg, listed as LI 52,804
  alcohol-seeking behavior (lever presses for alcohol) during the peak period: blocked this peak in alcohol-seeking behavior
[4]; dose-dependent, vs no injection and saline controls
  latency to the first response (delay to first alcohol lever press): significantly increased the latency to the first response; also recorded: dose dependently delayed the onset of responding
[4]; highest dose
  response latency, statistical significance: did not achieve significance
[4]; systemic, 10, 30 and 60 mg/kg
  water intake during 16-h sessions: no effect on water intake
[4]; the two low doses (10, 30 mg/kg)
  ethanol self-administration: did not significantly alter ethanol self-administration
